BindingDB's records for doi:10.1021/jm00044a013 (Alkermes, 1994)

molecular target: Calpain-1 (Sus scrofa); experiment: In vitro inhibition of porcine erythrocyte calpain 1.

Ki [µM] | SMILES
0.718 | CC(C)C[C@H](NC(=O)OCc1ccccc1)C(=O)N[C@H](Cc1ccccc1)C(=O)C(=O)N[C@@H](C)C(=O)O [(S)-2-[(R)-3-((S)-2-Benzyloxycarbonylamino-4-methyl-pentanoylamino)-2-oxo-4-phenyl-butyrylamino]-propionic acid]
0.092 | COC(=O)[C@H](C)NC(=O)C(=O)[C@@H](Cc1ccccc1)NC(=O)[C@H](CC(C)C)NC(=O)OCc1ccccc1 [(S)-2-[(R)-3-((S)-2-Benzyloxycarbonylamino-4-methyl-pentanoylamino)-2-oxo-4-phenyl-butyrylamino]-propionic acid methyl ester]
> 350 | CCNC(=O)C(O)[C@@H](Cc1ccccc1)NC(=O)[C@H](CC(C)C)NC(=O)OCc1ccccc1 (stereo partly drawn) [[(S)-1-((R)-1-Benzyl-2-ethylcarbamoyl-2-hydroxy-ethylcarbamoyl)-3-methyl-butyl]-carbamic acid benzyl ester]
